Source: US20240148821A1, “PHARMACEUTICAL USE OF CYCLIC PEPTIDE COMPOUND” (CHUGAI SEIYAKU KABUSHIKI KAISHA, priority 2021, published 2024)
pIC50: −log10 of the molar value. Numbered stars: 1 amine (or outer) side, 2 acyl side, 3 side chain; on linkers, the order of the positions; unused ones are H or OH. Bridge positions count the residues as written; N and C are the ends. Square brackets hold non-standard residues; d marks the D form. Peptide text beside a SMILES is read from it. * marks the point of attachment. hPhe(3,5-F2-4-CF3) = N[C@@H](CCc1cc(F)c(C(F)(F)F)c(F)c1)C(=O)O; hPhe(3-Cl-4-CF3) = N[C@@H](CCc1ccc(C(F)(F)F)c(Cl)c1)C(=O)O; NMePhe(4-CF3) = CN[C@@H](Cc1ccc(C(F)(F)F)cc1)C(=O)O; hPhe(4-CF3) = N[C@@H](CCc1ccc(C(F)(F)F)cc1)C(=O)O; NMePhe(4-Cl) = CN[C@@H](Cc1ccc(Cl)cc1)C(=O)O; X2 = COc1ccc(CC[C@H](N[*:1])C(=O)[*:2])cn1; X5 = CCN([C@@H](CC1CCCCC1)C(=O)[*:2])[*:1]; NMedβ3hAla = C[C@H](CC(=O)[*:2])N(C)[*:1]; NMeGly(cPent) = CN[C@H](C(=O)O)C1CCCC1; Pro(4,4-F2) = O=C(O)[C@@H]1CC(F)(F)CN1; X38 = CN1CCN(CCN(CC(=O)[*:2])[*:1])CC1; NMeCha = CN[C@@H](CC1CCCCC1)C(=O)O; NMeChg = CN[C@H](C(=O)O)C1CCCCC1; NMeD = CN[C@@H](CC(=O)O)C(=O)O; NMeL = CN[C@@H](CC(C)C)C(=O)O; NMehSer = CN[C@@H](CCO)C(=O)O; NMeV = CN[C@H](C(=O)O)C(C)C; d(β3hA) = C[C@@H](N)CC(=O)O; Pip = O=C(O)[C@@H]1CCCCN1; Morpholide = C1CN(*)CCO1; NMeA = CN[C@@H](C)C(=O)O; Piperidide = C1CCN(*)CC1; Ac5c = NC1(C(=O)O)CCCC1; Aze = O=C(O)[C@@H]1CCN1; Sar = CNCC(=O)O

The compounds below were run against protein-protein interaction between Kras and SOS1 (biotin-tagged human Kras loaded with GDP, His-tagged human SOS1) (Homo sapiens (Human), UniProt P01116, G12D) (assay: Protein-protein interaction inhibition between Kras and SOS1 (KrasG12D-SOS PPI) using AlphaScreen). Conditions: not given.
Format: biochemical

Question: With CC[C@H](C)[C@@H]1NC(=O)[C@H](CC(C)C)N(C)C(=O)C[C@@H](C(=O)N(C)C)N(C)C(=O)[C@H](C2CCCC2)N(C)C(=O)C2(CCCC2)NC(=O)[C@H](CC(=O)N2CCOCC2)N(C)C(=O)[C@H](CCc2ccc(C(F)(F)F)c(Cl)c2)NC(=O)CN(C)C(=O)[C@H](CC2CCCCC2)N(C)C(=O)[C@@H]2CCN2C(=O)[C@H](C)N(C)C1=O [Compound 2109] ([NMeL]I[NMeA][Aze][NMeCha][Sar][hPhe(3-Cl-4-CF3)][NMeD](Morpholide)[Ac5c][NMeGly(cPent)][NMeD]-NMe2; lactam N-11) as the compound, how does the pIC50 read?
Answer: 8.74

Same assay, conditions: AlphaScreen; biotin-tagged human Kras loaded with GDP, His-tagged human SOS1; read-out: KRAS G12D-SOS PPI IC50

Question: CC[C@H](C)[C@@H]1NC(=O)[C@H](CC(C)C)N(C)C(=O)C[C@@H](C)NC(=O)[C@H](C(C)C)N(C)C(=O)C2(CCCC2)NC(=O)[C@@H]2CCCN2C(=O)[C@H](CCc2ccc(C(F)(F)F)c(Cl)c2)NC(=O)CN(C)C(=O)[C@H](CC2CCCCC2)N(C)C(=O)[C@@H]2CCN2C(=O)CN(C)C1=O [Compound 663] (cyclo([Ac5c][NMeV][d(β3hA)][NMeL]I[Sar][Aze][NMeCha][Sar][hPhe(3-Cl-4-CF3)]P)) was tested. Which pIC50 did it give?
Answer: 7.80

Question: CC[C@H](C)[C@@H]1NC(=O)[C@H](CC(C)C)N(C)C(=O)C[C@@H](C(=O)N2CCCCC2)N(C)C(=O)[C@H](C2CCCC2)N(C)C(=O)C2(CCCC2)NC(=O)[C@@H]2CCCN2C(=O)[C@H](CCc2ccc(OC)nc2)NC(=O)CN(C)C(=O)[C@H](CC2CCCCC2)N(C)C(=O)[C@@H]2CCN2C(=O)[C@H](C)N(C)C1=O [Compound 2084] ([NMeL]I[NMeA][Aze][NMeCha][Sar][X2]P[Ac5c][NMeGly(cPent)][NMeD]-Piperidide; lactam N-11 (inferred); C-terminus assumed) was tested. Which pIC50 did it give?
Answer: 6.89

Question: How did the pIC50 turn out when CC[C@H](C)[C@@H]1NC(=O)[C@H](CC(C)C)N(C)C(=O)C[C@@H](C(=O)N2CCCCC2)N(C)C(=O)[C@H](C2CCCCC2)N(C)C(=O)C2(CCCC2)NC(=O)[C@H](CCOC)N(C)C(=O)[C@H](CCc2ccc(C(F)(F)F)c(Cl)c2)NC(=O)CN(C)C(=O)[C@H](CC2CCCCC2)N(C)C(=O)CN(C)C(=O)CN(C)C1=O [Compound 2168] ([NMeL]I[Sar][Sar][NMeCha][Sar][hPhe(3-Cl-4-CF3)][NMehSer](Me)[Ac5c][NMeChg][NMeD]-Piperidide; lactam N-11) was run?
Answer: 8.89

Question: How did the pIC50 turn out when CC[C@H](C)[C@@H]1NC(=O)[C@H](CC(C)C)N(C)C(=O)C[C@@H](C(=O)N2CCCCC2)N(C)C(=O)[C@H](C2CCCCC2)N(C)C(=O)C2(CCCC2)NC(=O)CN(CCN2CCN(C)CC2)C(=O)[C@H](CCc2ccc(C(F)(F)F)c(Cl)c2)NC(=O)CN(C)C(=O)[C@H](CC2CCCCC2)N(C)C(=O)CN(C)C(=O)CN(C)C1=O [Compound 2180, (11S,17S,26S,29S,33S,36S)-11-[2-[3-chloro-4-(trifluoromethyl)phenyl]ethyl]-36-cyclohexyl-17-(cyclohexylmethyl)-29-isobutyl-15,18,21,24,30,34,37-heptamethyl-9-[2-(4-methylpiperazin-1-yl)ethyl]-26-[(1S)-1-methylpropyl]-33-(piperidine-1-carbonyl)-6,9,12,15,18,21,24,27,30,34,37-undecazaspiro[4.33]octatriacontane-7,10,13,16,19,22,25,28,31,35,38-undecone] ([NMeL]I[Sar][Sar][NMeCha][Sar][hPhe(3-Cl-4-CF3)][X38][Ac5c][NMeChg][NMeD]-Piperidide; lactam N-11) was run?
Answer: 9.03

Question: CC[C@H](C)[C@@H]1NC(=O)[C@H](CC(C)C)N(C)C(=O)C[C@@H](C)N(C)C(=O)[C@H](C2CCCC2)N(C)C(=O)C2(CCCC2)NC(=O)[C@@H]2CC(F)(F)CN2C(=O)[C@H](CCc2cc(F)c(C(F)(F)F)c(F)c2)NC(=O)CN(C)C(=O)[C@H](Cc2ccc(C(F)(F)F)cc2)N(C)C(=O)[C@@H]2CCN2C(=O)[C@H](C)N(C)C1=O [Compound 900] (cyclo([Ac5c][NMeGly(cPent)][NMedβ3hAla][NMeL]I[NMeA][Aze][NMePhe(4-CF3)][Sar][hPhe(3,5-F2-4-CF3)][Pro(4,4-F2)])) was tested. Which pIC50 did it give?
Answer: 9.08

Question: CC[C@H](C)[C@@H]1NC(=O)[C@H](CC(C)C)N(C)C(=O)C[C@@H](C(=O)N2CCCCC2)N(C)C(=O)[C@H](C(C)C)N(C)C(=O)C2(CCCC2)NC(=O)[C@@H]2CCCN2C(=O)[C@H](CCc2ccc(C(F)(F)F)c(Cl)c2)NC(=O)CN(C)C(=O)[C@H](CC2CCCCC2)N(CC)C(=O)[C@@H]2CCN2C(=O)[C@H](C)N(C)C1=O [Compound 23] ([NMeL]I[NMeA][Aze][X5][Sar][hPhe(3-Cl-4-CF3)]P[Ac5c][NMeV][NMeD]-Piperidide; lactam N-11) was tested. Which pIC50 did it give?
Answer: 8.57

Question: How did the pIC50 turn out when CC[C@H](C)[C@@H]1NC(=O)[C@@H]2CCCCN2C(=O)C[C@@H](C)NC(=O)[C@H](CC(C)C)N(C)C(=O)C2(CCCC2)NC(=O)[C@@H]2CCCN2C(=O)[C@H](CCc2ccc(C(F)(F)F)cc2)NC(=O)CN(C)C(=O)[C@H](Cc2ccc(Cl)cc2)N(C)C(=O)CN(C)C(=O)CN(C)C1=O [Compound 227] (cyclo([Ac5c][NMeL][d(β3hA)][Pip]I[Sar][Sar][NMePhe(4-Cl)][Sar][hPhe(4-CF3)]P)) was run?
Answer: 7.09
